The nature of test [1]: Antioxidant capacity by chemiluminescence (Photochem Analytik Jena). The conditions noted are these: for μg of sample for 1 μg of Trolox: Trolox equivalent, lower = stronger antioxidant. As for the experimental part:
This test is used to determine the antioxidant capacity of the molecules. It is a method that generates free radicals by a photochemical signal. The intensity of the oxidation is 1000 times greater than that obtained under normal conditions.
The detection is carried out by chemiluminescence. It enables the evaluation of hydrosoluble and liposoluble anti-oxidant molecules or extracts.
The results are expressed respectively in equivalent quantity of vitamin C or Trolox (6-hydroxy-2,5,7,8-tetramethylchroman-2-carboxylic acid). The sensitivity is of the order of a nanomole.
The antioxidant activity studied in this test represents the capacity to trap specifically superoxide anions by chemiluminescence.
The quantified results are expressed in Trolox equivalent (standard), i.e. in “μg of product for 1 μg of Trolox”. This signifies that a quantity×of sample is needed to obtain an activity equivalent to the activity detected for 1 μg of standard. It is an anti-oxidant power relative to a reference, which makes it possible to disregard the concentration tested.
The superoxide radical: 02^0− is generated by a photochemical reaction: L+hv (UV)+O2→L*O2→L^0++O2^0−
A part of the superoxide anions is quenched by the anti-oxidants. The remaining free radicals are quantified by chemiluminescence. L^0++O2^0−→N2+AP*^2−→AP^2−+hv (luminescence)

For the next test, the target named is T1, mushroom tyrosinase (Agaricus bisporus, UniProt C7FF04).
T1 construct: purchased Sigma T-3824
T1 sequence (C7FF04 1-392 limits assumed): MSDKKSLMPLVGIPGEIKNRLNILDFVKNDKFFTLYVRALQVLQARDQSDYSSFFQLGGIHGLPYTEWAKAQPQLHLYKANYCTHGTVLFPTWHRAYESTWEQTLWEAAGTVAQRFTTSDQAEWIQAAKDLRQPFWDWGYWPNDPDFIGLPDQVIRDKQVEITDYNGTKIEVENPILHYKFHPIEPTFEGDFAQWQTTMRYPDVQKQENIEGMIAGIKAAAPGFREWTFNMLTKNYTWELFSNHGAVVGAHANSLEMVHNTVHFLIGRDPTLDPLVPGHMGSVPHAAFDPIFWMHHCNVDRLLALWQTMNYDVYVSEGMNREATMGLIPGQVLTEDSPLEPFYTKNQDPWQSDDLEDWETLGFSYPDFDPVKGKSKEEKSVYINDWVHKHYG
The test is described as follows: Tyrosinase inhibition test (in vitro acellular depigmenting activity). The conditions noted are these: for Tyrosinase depigmenting activity result: class symbol, assay from 250 to 150 μM, overall tyrosinase activity (MPMOg), L-tyrosine substrate; for IC50: monophenol monooxygenase (MPMO) function, reference molecules for the test, read-out: IC 50 (MPMO). The test is classed as biochemical. The text has this:
A) Determination of the Depigmenting Activity in an in vitro Acellular Test: Tyrosinase Inhibition Test)
This test is used to evaluate the depigmenting activity of the molecules tested. Tyrosinase is a limiting enzyme in melanogenesis.
It belongs to the family of oxydoreductases. It has in particular the function: monophenol monooxygenase (MPMO) and polyphenol oxidase (PPO).
It is synthesised at the level of the melanocytes. It is activated during its migration towards melanosome […]. It transforms tyrosine into DOPA then dopaquinone, which leads in fine to a polymerisation, i.e. a production of pigments (see diagram below).
The substrate: L-tyrosine, is transformed into L-DOPA by the monophenol mono oxygenase function which is transformed by the polyphenol oxidase function from tyrosinase into dopaquinone. The latter is going to self-oxidise into dopachrome which is measured by spectrophotometry at 490 nm.
More precisely, it is the overall tyrosinase activity (MPMOg) which is measured since it is the dopachrome in fine that is assayed. Thus the products tested on MPMOg (=measurement of the activity on PPO and MPMO) can cumulate the inhibition of the 2 functions, • inhibiting uniquely the MPMO function stricto sensus (transformation of tyrosine into DOPA) as a complement to the PPO test, • could inhibit PPO uniquely. General Experimental Conditions:

The test system of another test is B16-F10 cells. Put plainly: Melanin assay test in B16-F10 cells. The test is classed as cell-based, murine. The conditions noted are these: Mus musculus, read-out: B16 activity results -% at X μM. The procedure:
B) Melanin Assay Test in B16-F10 Cells:
This involves a test of measuring the synthesis of melanin by colorimetric assay on a murine melanoma cell line: the B16-F10 line. This test makes it possible to evaluate the depigmenting power of active ingredients.
The B16-F10 cells are cultured in 96-well plates in DMEM medium supplemented with FCS (foetal calf serum), and incubated for 24 hours at 37° C., 5% CO2. The cells are then stimulated with 0.1 μM α-MSH (to stimulate the synthesis of melanin, the stimulation observed is around 150%) and treated for 72 hours with the active ingredients to be tested. Each concentration of active ingredient is tested at least in triplicate. The total melanin followed by the intracellular melanin dissolved in the lysis buffer are then assayed by absorbance reading at 405 nm. The total proteins are assayed in the lysate and the results are expressed in mg melanin/mg proteins. The percentage of activity is calculated as follows: […]
A negative value indicates an inhibition, whereas a positive value indicates an induction of the synthesis of melanin.
• B16-F10 cell line between P10 and P20 (murine melanocytes) (ATCC, CRL-6475)
Reagents: • DMEM without phenol red (GibcoBRL, 31053-028), 200 mM Glutamax-I Supplement (GibcoBRL, 35050-038), D-PBS (GibcoBRL, 14190-094), Foetal calf serum (Invitrogen, 10270-098), Trypsine-EDTA (GibcoBRL, 25300-054), NaOH (Sigma, S8045-500G), DMSO (Sigma, 471267-1L), Nle, Phe—Melanocyte Stimulating Hormone (Sigma, M-8764), Melanin (Sigma, M-0418), BCA-Copper (Sigma, B9643 and C2284), BSA (Sigma, P0914) C) Test for the Study of the Antioxidant Capacity by Chemiluminescence (Photochem Analytik Jena) Principle: […]

The nature of test [2]: Protection of linoleic acid following a UV stress (Fenton conditions, MDA-TBA assay). As to conditions: for % Protection Linoleic acid under UV/Fenton: UV + H2O2 + iron II. The arrangement: % Protection Linoleic acid under UV/Fenton: concentration or dose not given beside the values. An excerpt: D) Test of Protection of Linoleic Acid Following a UV Stress. Target: Protection of Linoleic Acid Under Fenton Conditions, UV Irradiation Linoleic acid belongs to the family of polyunsaturated fatty acids (PUFA) (AGPI). Sensitive to oxidation, linoleic acid is a favoured target for oxygenated free radicals (OFR) in biological media. When biological membranes are exposed to an oxidative stress, the components the most affected are the phospholipids constituted of PUFA and cholesterol. Their degradation leads to lipidic peroxidation and generally to destructuring. Lipidic peroxidation is a self-catalysing process which generally involves OFR. Lipidic peroxidation is in part responsible for skin ageing. The method employed to evaluate lipid peroxidation is based on the coupling of thiobarbituric acid (TBA) and secondary degradation products leading to coloured compounds detectable by spectrofluorometry. The essential secondary compound of final degradation is malondialdehyde, MDA. MDA is a carcinogenic and mutagenic aldehyde, it acts on proteins and DNA. The sample to be tested is placed in contact with linoleic acid in a weight/weight ratio. The sample undergoes an MED (Minimal Erythemal Dose) irradiation under Fenton conditions, namely in the presence of H202 and iron II in a solar simulator. Following irradiation, the reaction mixture is taken up in methanol and derivatised at 90° C. with TBA. Chromogene, the MDA-TBA complex, representative of the equimolar production of MDA is assayed by fluorimetry (excitation at 525 nm, emission at 549 nm). The results are expressed in fluorescence units, as a function of a MDA-TBA control range then expressed as concentration of the MDA-TBA complex. Then, the percentage of the starting MDA/linoleic acid (LA) ratio is determined. Then the percentage of protection of linoleic acid is determined. The product assay is expressed as weight/weight ratio, in other words in weight percentage with respect to the total quantity of linoleic acid. The maximal MDA level is determined by the condition UV+H202+iron II (F). The percentage of protection of linoleic acid represents: the % ratio of MDA under maximal stress conditions untreated over the % of MDA under stress conditions treated by the product.

Setting [3] is: reference products of the interpretation scale.

Results on 17 compounds are retold here after patent US8859819B2, “Sulphurated derivatives of resorcinol, preparation of same and cosmetic uses thereof” (Pierre Fabre Dermo-Cosmetique, priority 2009, dated 2014).

Take `O=C(O)CCCC[C@@H]1CCSS1` (racemic) [Lipoic acid, reference compound]: in test [1] (setting [3]), the “Activity (antioxidant, interpretation scale)” value was “None” and the “μg of sample for 1 μg of Trolox (scale for interpreting the results, reference products)” value is “NEGATIVE”.

In the case of `OC[C@H]1O[C@@H](Oc2ccc(O)cc2)[C@H](O)[C@@H](O)[C@@H]1O` [Arbutin, reference compound], the inhibition at 88 µM on mushroom tyrosinase (at 88 μM, MPMO function) amounted to 57%.

For `Cc1cc(C(C)(C)C)c(O)c(C(C)(C)C)c1` [BHT, reference compound], the “Activity (antioxidant, interpretation scale)” value in test [1] (setting [3]) is given as “Good (3.01 to 50)”.

As to `N[C@@H](CS)C(=O)O` [Cysteine, reference compound], the “Activity (antioxidant, interpretation scale)” value in test [1] (setting [3]) is “Medium (50.1 to 1000)”.

As for `CCCCOc1ccc(Sc2ccc(O)cc2O)c(O)c1` [Example 6, 4-(4-butoxy-2-hydroxyphenylthio)benzene-1,3-diol], the “Tyrosinase depigmenting activity result” value at mushroom tyrosinase is given as “+ + +”. For the same compound, the inhibition at 20 µM in the test with B16-F10 cells (B16-F10, 72 h) turned out to be 30%. Moreover, the “μg of sample for 1 μg of Trolox” value in test [1] is given as 14.9 μg of sample for 1 μg of Trolox.

With `CCCCCCCCCCCC(=O)Oc1cc(O)ccc1Sc1ccc(O)cc1O` [Example 14, 2-(2,4-dihydroxyphenylthio)-5-hydroxyphenyl dodecanoate], on mushroom tyrosinase, the “Tyrosinase depigmenting activity result” value was “+ + +”. In the test on B16-F10 cells (B16-F10, 48 μM, α-MSH stimulated, 72 hours, negative value = inhibition), the inhibition at 48 µM amounted to 50%. Besides, in test [1], the “μg of sample for 1 μg of Trolox” value was 4.8 μg of sample for 1 μg of Trolox.

With `CCCCCCCC(=O)Oc1ccc(Sc2ccc(O)cc2O)c(O)c1` [Example 16, 4-(2,4-dihydroxyphenylthio)-3-hydroxyphenyl octanoate], at mushroom tyrosinase, the “Tyrosinase depigmenting activity result” value is listed as “+ + +”. The “μg of sample for 1 μg of Trolox” value in test [1] was 33.2 μg of sample for 1 μg of Trolox. Moreover, in test [2], the “% Protection Linoleic acid under UV/Fenton” value (from here on “% Protection Linoleic acid”) is given as 91%.

Regarding `COc1ccc(/C=C/C(=O)Oc2cc(O)ccc2Sc2ccc(O)cc2O)cc1` [Example 22, (E)-2-(2,4-dihydroxyphenylthio)-5-hydroxyphenyl 3-(4-metoxyphenyl)acrylate], the “Tyrosinase depigmenting activity result” value on mushroom tyrosinase is given as “+ + +”. In addition, the “μg of sample for 1 μg of Trolox” value in test [1] is given as 2.5 μg of sample for 1 μg of Trolox. Besides, in test [2], the “% Protection Linoleic acid” value was determined as 97%.

Take `COc1ccc(/C=C/C(=O)Oc2cc(O)ccc2Sc2ccc(O)cc2O)cc1OC` [Example 23, (E)-2-(2,4-dihydroxyphenylthio)-5-hydroxyphenyl 3-(3,4-dimethoxyphenyl)acrylate]: the “Tyrosinase depigmenting activity result” value on mushroom tyrosinase is listed as “+ + +”. The “μg of sample for 1 μg of Trolox” value in test [1] is listed as 2.8 μg of sample for 1 μg of Trolox. Further, in test [2], the “% Protection Linoleic acid” value came to 96%.

As for `CCCCCCCCCCCC(=O)Oc1cc(O)ccc1[S+]([O-])c1ccc(O)cc1O` (stereo not drawn) [Example 26, 2-(2,4-dihydroxyphenylsulphinyl)-5-hydroxyphenyl dodecanoate], the “μg of sample for 1 μg of Trolox” value in test [1] is listed as 69 μg of sample for 1 μg of Trolox. In test [2], the “% Protection Linoleic acid” value is 80%.

For the compound `CCCCC/C=C\C/C=C\CCCCCCCC(=O)Oc1cc(O)ccc1[S+]([O-])c1ccc(O)cc1O` (stereo not drawn) [Example 27, (9Z,12Z)-2-(2,4-dihydroxyphenylsulphinyl)-5-hydroxyphenyl octadeca-9,12-dienoate], the “μg of sample for 1 μg of Trolox” value in test [1] is given as 40 μg of sample for 1 μg of Trolox. Also, in test [2], the “% Protection Linoleic acid” value is 78%.

For the compound `CCCCCCCCCCOc1cc(O)ccc1[S+]([O-])c1ccc(O)cc1O` (stereo not drawn) [Example 28, 4-(2-(decyloxy)-4-hydroxyphenylsulphinyl)benzene-1,3-diol], the “μg of sample for 1 μg of Trolox” value in test [1] is given as 28 μg of sample for 1 μg of Trolox. Also, in test [2], the “% Protection Linoleic acid” value was 94%.

As for `O=S(=O)(c1ccc(O)cc1O)c1ccc(O)cc1O` [Example 29, 4,4′-sulphonyldibenzene-1,3-diol], the “μg of sample for 1 μg of Trolox” value in test [1] is 301 μg of sample for 1 μg of Trolox; in test [1] (listed as resorcinol sulphone), 301 μg of sample for 1 μg of Trolo. The “% Protection Linoleic acid” value in test [2] was 25%.

Regarding `CCCCCCCCCCOc1cc(O)ccc1S(=O)(=O)c1ccc(O)cc1O` [Example 30, 4-(2-(decyloxy)-4-hydroxyphenylsulphonyl)benzene-1,3-diol], in test [1], the “μg of sample for 1 μg of Trolox” value is given as 147 μg of sample for 1 μg of Trolox. Besides, in test [2], the “% Protection Linoleic acid” value was 34%.

As to `Oc1ccc(O)cc1` [Hydroquinone, reference compound], the IC50 at mushroom tyrosinase was 3000 to 4000 nM.

On to `N[C@@H](CCC(=O)N[C@@H](CS)C(=O)NCC(=O)O)C(=O)O` [Reduced glutathion, reference compound], for which, at mushroom tyrosinase (at 25 μM, PPO function), the “% inhibition (PPO)” value is recorded as 55%. Further, the IC50 on mushroom tyrosinase was 1000 to 2000 nM.

On to `O=c1c(O)c(-c2ccc(O)c(O)c2)oc2cc(O)cc(O)c12` [quercetin, reference compound], for which the “protection of linoleic acid” value was “around 50%” in test [2] (positive control at 0.1% (weight/weight of linoleic acid)) and “almost total protection” in test [2] (positive control at 1% (weight/weight of linoleic acid)).
